Reference: PubChem BioAssay AID330 (DTP/NCI, 2004)
“And” between values parts separate entries of the source, which are not always exact repeats. Identical values can stand only once. Toxic doses and inconclusive results are not listed. How the source made its calls: active means survival T/C of 150% or more; inactive means T/C below 125% in these data.

Tested on: P388 leukemia ip, CD2F1 mice, survival T/C
Test: NCI In Vivo Anticancer Drug Screen. Data for tumor model P388 Leukemia (intraperitoneal) in CD2F1 (CDF1) mice
Conditions: endpoint: median survival time, higher = longer survival
Outline: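 Mice carrying the transplanted tumor received test compound or vehicle. Survival was recorded in each group, and the value is the treated-group measurement divided by that of the vehicle-treated control group.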

[1] = dose: 3.12 mg/kg/injection, schedule: Q01DX009 (ip), vehicle: distilled water + Tween-80
[2] = dose: 6.25 mg/kg/injection, schedule: Q01DX009 (ip), vehicle: distilled water + Tween-80
[3] = dose: 12.5 mg/kg/injection, schedule: Q01DX009 (ip), vehicle: distilled water + Tween-80
[4] = dose: 25.0 mg/kg/injection, schedule: Q01DX009 (ip), vehicle: distilled water + Tween-80
[5] = dose: 25.0 mg/kg/injection, schedule: Q01DX009 (ip), vehicle: saline with Tween-80
[6] = dose: 50.0 mg/kg/injection, schedule: Q01DX009 (ip), vehicle: saline with Tween-80
[7] = dose: 60.0 mg/kg/injection, schedule: Q01DX005 (ip), vehicle: Klucel (hydroxypropylcellulose) (HPC)
[8] = dose: 120.0 mg/kg/injection, schedule: Q01DX005 (ip), vehicle: Klucel (hydroxypropylcellulose) (HPC)
[9] = dose: 240.0 mg/kg/injection, schedule: Q01DX005 (ip), vehicle: Klucel (hydroxypropylcellulose) (HPC)
[10] = dose: 60.0 mg/kg/injection, schedule: Q01DX005 (ip), vehicle: saline with Tween-80
[11] = dose: 120.0 mg/kg/injection, schedule: Q01DX005 (ip), vehicle: saline with Tween-80
[12] = dose: 240.0 mg/kg/injection, schedule: Q01DX005 (ip), vehicle: saline with Tween-80
[13] = dose: 50.0 mg/kg/injection, schedule: Q01DX005 (ip), vehicle: saline with Tween-80
[14] = dose: 100.0 mg/kg/injection, schedule: Q01DX005 (ip), vehicle: saline with Tween-80
[15] = dose: 200.0 mg/kg/injection, schedule: Q01DX005 (ip), vehicle: saline with Tween-80
[16] = dose: 100.0 mg/kg/injection, schedule: Q01DX009 (ip), vehicle: saline with Tween-80
[17] = dose: 200.0 mg/kg/injection, schedule: Q01DX009 (ip), vehicle: saline with Tween-80

Measured: T/C

S=C(NCc1cccnc1)Nc1ccc(Cl)c(Cl)c1
inactive: dose: 50.0 mg/kg/injection, schedule: Q01DX009 (ip), vehicle: Klucel (hydroxypropylcellulose) (HPC) 104 % of control | dose: 100.0 mg/kg/injection, schedule: Q01DX009 (ip), vehicle: Klucel (hydroxypropylcellulose) (HPC) 108 % of control | dose: 200.0 mg/kg/injection, schedule: Q01DX009 (ip), vehicle: Klucel (hydroxypropylcellulose) (HPC) 104 % of control

CCc1nc(N)nc(N)c1-c1ccc(Cl)c(N)c1
inactive: [1] 101 % of control | [2] 111 % of control | [3] 110 % of control | [4] 100 % of control | dose: 50.0 mg/kg/injection, schedule: Q01DX009 (ip), vehicle: distilled water + Tween-80 100 % of control and 111 % of control | dose: 100.0 mg/kg/injection, schedule: Q01DX009 (ip), vehicle: distilled water + Tween-80 105 % of control | dose: 200.0 mg/kg/injection, schedule: Q01DX009 (ip), vehicle: distilled water + Tween-80 101 % of control | dose: 400.0 mg/kg/injection, schedule: Q01DX009 (ip), vehicle: distilled water + Tween-80 118 % of control

[Cl][Pt+2][Cl].[NH-]c1ccc2[nH]c(=S)sc2c1.[NH-]c1ccc2[nH]c(=S)sc2c1
inactive: dose: 100.0 mg/kg/injection, schedule: Q01DX001 (sc), vehicle: olive oil, sesame oil, peanut oil 104 % of control | dose: 200.0 mg/kg/injection, schedule: Q01DX001 (sc), vehicle: olive oil, sesame oil, peanut oil 114 % of control | dose: 400.0 mg/kg/injection, schedule: Q01DX001 (sc), vehicle: olive oil, sesame oil, peanut oil 104 % of control

FC(F)(F)c1cccc(N(c2nc(Cl)nc(Cl)n2)c2nc(Cl)nc(Cl)n2)c1
inactive: dose: 50.0 mg/kg/injection, schedule: Q01DX009 (ip), vehicle: suspension in saline 94 % of control | dose: 100.0 mg/kg/injection, schedule: Q01DX009 (ip), vehicle: suspension in saline 92 % of control | dose: 200.0 mg/kg/injection, schedule: Q01DX009 (ip), vehicle: suspension in saline 91 % of control

C/C=C(\C)C(=O)OCc1c2c(c(OC)c3occ(C)c13)C=CCC2C (centres undefined)
inactive: dose: 5.5 mg/kg/injection, schedule: Q01DX009 (ip), vehicle: Klucel (hydroxypropylcellulose) (HPC) 94 % of control | dose: 11.0 mg/kg/injection, schedule: Q01DX009 (ip), vehicle: Klucel (hydroxypropylcellulose) (HPC) 100 % of control | dose: 22.0 mg/kg/injection, schedule: Q01DX009 (ip), vehicle: Klucel (hydroxypropylcellulose) (HPC) 100 % of control | dose: 44.0 mg/kg/injection, schedule: Q01DX009 (ip), vehicle: Klucel (hydroxypropylcellulose) (HPC) 104 % of control

CCCCCCC(O)C[N+](=O)[O-] (centres undefined)
inactive: dose: 5.56 mg/kg/injection, schedule: Q01DX009 (ip), vehicle: saline with Tween-80 102 % of control | dose: 8.33 mg/kg/injection, schedule: Q01DX009 (ip), vehicle: saline with Tween-80 110 % of control | dose: 12.5 mg/kg/injection, schedule: Q01DX009 (ip), vehicle: saline with Tween-80 117 % of control and 124 % of control | dose: 18.7 mg/kg/injection, schedule: Q01DX009 (ip), vehicle: saline with Tween-80 115 % of control | [5] 111 % of control | [6] 120 % of control

C[n+]1ccc2ccccc2c1SC1CCC2CC3CC2C1C3 (centres undefined)
inactive: dose: 7.5 mg/kg/injection, schedule: Q01DX005 (ip), vehicle: saline with Tween-80 106 % of control | dose: 15.0 mg/kg/injection, schedule: Q01DX005 (ip), vehicle: saline with Tween-80 110 % of control

CCCCOc1ccc(Nc2c(C(=O)OCC)cnc3cc4c(cc23)OCO4)cc1
inactive: [7] 97 % of control | [8] 95 % of control | [9] 97 % of control

O=C(NO)C(O)C(O)C(O)C(O)CO (centres undefined)
inactive: dose: 12.5 mg/kg/injection, schedule: Q01DX009 (ip), vehicle: saline 93 % of control | dose: 25.0 mg/kg/injection, schedule: Q01DX009 (ip), vehicle: saline 91 % of control | dose: 50.0 mg/kg/injection, schedule: Q01DX009 (ip), vehicle: saline 98 % of control and 97 % of control | dose: 200.0 mg/kg/injection, schedule: Q01DX009 (ip), vehicle: saline 86 % of control

O=C1NN2CCN=C2c2ncccc21
inactive: [10] 104 % of control | [11] 94 % of control | [12] 87 % of control

C[CH2][Sn]1([CH2]C)[O]C(=O)CCCCC(=O)[O]1
inactive: dose: 12.5 mg/kg/injection, schedule: Q04DX003 (ip), vehicle: saline 115 % of control

Cc1c(C)c(C)c(C(=O)c2ccccc2C(=O)NCCSC(C)(C)C)c(C)c1C
inactive: dose: 30.0 mg/kg/injection, schedule: Q01DX005 (ip), vehicle: Klucel (hydroxypropylcellulose) (HPC) 98 % of control | [7] 93 % of control and 96 % of control | [8] 92 % of control | [9] 87 % of control

COc1cc(NC(C)CCCN)c2ncccc2c1 (centres undefined)
inactive: dose: 12.5 mg/kg/injection, schedule: Q01DX009 (ip), vehicle: saline sonified 118 % of control | dose: 25.0 mg/kg/injection, schedule: Q01DX009 (ip), vehicle: saline sonified 109 % of control | dose: 50.0 mg/kg/injection, schedule: Q01DX009 (ip), vehicle: saline sonified 90 % of control

c1cc(Nc2ccc3c(c2)OCO3)c2cc(C3CCCCC3)ccc2n1
inactive: [10] 97 % of control | [11] 98 % of control | [12] 100 % of control

C=CCCN1CC2CC(C1)N1CCCCC1C2=O (centres undefined)
inactive: dose: 5.25 mg/kg/injection, schedule: Q01DX005 (ip), vehicle: Klucel (hydroxypropylcellulose) (HPC) 102 % of control | dose: 10.5 mg/kg/injection, schedule: Q01DX005 (ip), vehicle: Klucel (hydroxypropylcellulose) (HPC) 103 % of control | dose: 21.0 mg/kg/injection, schedule: Q01DX005 (ip), vehicle: Klucel (hydroxypropylcellulose) (HPC) 100 % of control | dose: 42.0 mg/kg/injection, schedule: Q01DX005 (ip), vehicle: Klucel (hydroxypropylcellulose) (HPC) 103 % of control

CCOC(=O)/N=C(/NC(=O)OCC)N1CCN(c2ccnc3cc(Cl)ccc23)CC1
inactive: [13] 98 % of control | [14] 97 % of control | [15] 91 % of control

O=[N+]([O-])CC(O)C(Cl)(Cl)Cl (centres undefined)
inactive: dose: 50.0 mg/kg/injection, schedule: Q01DX001 (ip), vehicle: saline 107 % of control | dose: 100.0 mg/kg/injection, schedule: Q01DX001 (ip), vehicle: saline 107 % of control | dose: 200.0 mg/kg/injection, schedule: Q01DX001 (ip), vehicle: saline 107 % of control

O=c1n(-c2ccccc2)c(=O)n2n1C1CC3c4ccccc4C1C2C31CC1 (centres undefined)
inactive: [13] 104 % of control | [14] 101 % of control | [15] 92 % of control

[O-][n+]1c2ccccc2[n+]([O-])c2c(O)cccc21
inactive: [1] 113 % of control | [2] 114 % of control and 121 % of control | [3] 121 % of control | [4] 119 % of control and 122 % of control

O=C(Cc1ccccn1)c1cccnc1
inactive: dose: 100.0 mg/kg/injection, schedule: Q04DX003 (ip), vehicle: saline 94 % of control | dose: 200.0 mg/kg/injection, schedule: Q04DX003 (ip), vehicle: saline 96 % of control | dose: 400.0 mg/kg/injection, schedule: Q04DX003 (ip), vehicle: saline 100 % of control

O=c1c2c([nH]c3c1ccc1[nH]c4c(c(=O)c13)CCCC4)CCCC2
inactive: [6] 90 % of control | [16] 91 % of control | [17] 97 % of control

COc1cccc2c1C(=O)c1c(O)c3c(c(O)c1C2=O)C/C(=N/O)CC3OC1CC(NC(=O)C(F)(F)F)C(O)C(C)O1 (centres undefined)
inactive: dose: 1.56 mg/kg/injection, schedule: Q01DX009 (ip), vehicle: other 106 % of control | dose: 3.13 mg/kg/injection, schedule: Q01DX009 (ip), vehicle: other 88 % of control | dose: 6.25 mg/kg/injection, schedule: Q01DX009 (ip), vehicle: other 92 % of control | dose: 12.5 mg/kg/injection, schedule: Q01DX009 (ip), vehicle: other 110 % of control

CCOc1ccc(Cc2ccc3c(c2)OCO3)cc1C
inactive: [13] 101 % of control | [14] 108 % of control | [15] 111 % of control

CN(C)C(=O)c1ccc([N+](=O)[O-])cc1
inactive: [5] 119 % of control | [6] 98 % of control | [16] 96 % of control | [17] 104 % of control
